Test results taken from patent publication US6828327B2, “Macroheterocylic compounds useful as kinase inhibitors” (Ortho-McNeil Pharmaceutical, Inc., priority 2000, dated 2004).

Columns and labels:
Assay type in all cases: biochemical
PKC-βI = target: T1, PKC-βI (Homo sapiens, UniProt P05771); assay: Protein Kinase C Scintillation Proximity Assay (SPA), PKC-βI; conditions: inhibition value, recombinant human isozyme, 1 μM ATP
T1 construct: purchased PanVera, Madison Wis; host or cells: baculovirus expression vector
Method: (§1) The binding activity of a compound for Protein Kinase C (PKC) was assessed using a homogeneous Scintillation Proximity Assay according to the procedure below.
(§2) The different human PKC isozymes (were obtained from PanVera, Madison Wis. and had been prepared as recombinant enzymes produced from a baculovirus expression vector) were added to a reaction mixture containing a test compound, 20 mM HEPES (pH 7.4), 100 μM CaCl2, 10 mM MgCl2, 100 μg/mL phosphatidylserine, 20 μg/mL diacylglycerol, 1 μM ATP, 0.8 μCi (^33P)ATP, and 5 μg/mL biotinylated substrate peptide (Jing Zhao et al., J. Bio. Chem., 1998, 273, 23072). The reaction was incubated for 15 min at 30° C. Reactions were terminated by the addition of streptavidin-coated SPA beads (Amersham) in a solution containing 1 mM EGTA, 10 mM EDTA and 100 μM ATP. Beads were allowed to settle overnight and the plates read in a Wallac MICROBETA scintillation counter (PerkinElmer Life sciences, Wellesley, Mass.).
(§3) Values for inhibition of various PKC isozymes and GSK 3-β by certain compounds of the invention tested in the PKC SPA and GSK 3-β assays are shown in Table 1.

PKC-γ = target: T2, PKC-γ (Homo sapiens, UniProt P05129); assay: Protein Kinase C Scintillation Proximity Assay (SPA), PKC-γ; conditions: inhibition value, recombinant human isozyme, 1 μM ATP
T2 construct: purchased PanVera, Madison Wis; host or cells: baculovirus expression vector
Method: as §1, §2, §3

VEGF-R = target: T3, VEGF-R (Rattus norvegicus, UniProt O08775); assay: Biotinylated Peptide Substrate Assay, VEGF-R; conditions: read-out: VEGF-R Kinase Assay (IC50 uM)
T3 construct: polyhistidine (N)
Method: (§4) Assays to test inhibition of a compound for other kinases were preformed using methods that measure the amount of phosphorylation of a biotinylated peptide substrate. Biotinylated peptide substrates were selected from the literature as appropriate for the enzyme being evaluated.
(§5) A kinase reaction mix was prepared in 50 mM Tris-HCl pH=8, 10 mM MgCl2, 0.1 mM Na3VO4, 1 mM DTT, 10 μM ATP, 0.25-1 μM biotinylated peptide substrate, 0.2-0.8 μCuries per well ^33P-γ-ATP (2000-3000 Ci/mmol). Assay conditions vary slightly for each protein kinase, for example, insulin receptor kinase requires 10 mM MnCl2 for activity and Calmodulin-dependent protein kinase requires calmodulin and 10 mM CaCl2. The reaction mixture was dispensed into the wells of a streptavidin coated Flashplate and 1 μL drug stock in 100% DMSO was added to a 100 μL reaction volume resulting in a final concentration of 1% DMSO in the reaction. Enzyme was diluted in 50 mM Tris-HCl pH=8.0, 0.1% BSA and added to each well. The reaction was incubated for one hour at 30° C. in the presence of compound. After one hour the reaction mix was aspirated from the plate and the plate was washed with PBS containing 100 mM EDTA. The plate was read on a scintillation counter to determine ^33P-γ-ATP incorporated into the immobilized peptide. Test compounds were assayed in duplicate at 8 concentrations (100 uM, 10 uM, 1 uM, 100 nM, 10 nM, 1 nM, 100 pM, 10 pM). A maximum and minimum signal for the assay was determined on each plate.
(§6) The IC50 was calculated from the dose response curve of the percent inhibition of the maximum signal in the assay according to the formula:
(§7) % Inhibition=((MS−BS)/(TCS−BS))×100%
(§8) where MS=Maximum Signal, BS=Background Signal, TCS=Test Compound Signal. The percent inhibition was graphed against the log concentration of the test compound. Known inhibitor compounds as appropriate references for the kinase being assayed were also included on each plate.
(§9) VEGF-R (vascular endothelial growth factor receptor-2) is a fusion protein containing a polyhistidine tag at the N-terminus followed by amino acids 786-1343 of the rat VEGF-R2 kinase domain (GenBank Accession #U93306). Protein Kinase A is the catalytic subunit of cAMP dependent protein kinase-A purified from bovine heart (Upstate Biotech, Lake Placid, N.Y., Cat#14-114). CDK1 (cyclin dependent kinase 1) is isolated from insect cells expressing both the human CDK1 catalytic subunit and its positive regulatory subunit cyclin B (New England Biolabs, Beverly, Mass., Cat. #6020). Casein Kinase-1 is a protein truncation at amino acid 318 of the C-terminal portion of the rat CK1 delta isoform produced in E.coli (New England Biolabs, Beverly, Mass., Cat. #6030). […]

Casein Kinase 1 = target: T4, Casein Kinase 1 (Rattus norvegicus, UniProt Q06486); assay: Biotinylated Peptide Substrate Assay, Casein Kinase 1
T4 construct: a protein truncation at amino acid 318 of the C-terminal portion of the rat CK1 delta isoform; purchased New England Biolabs, Beverly, Mass; 6030; host or cells: E. coli
T4 sequence (Q06486 1-317 limits assumed): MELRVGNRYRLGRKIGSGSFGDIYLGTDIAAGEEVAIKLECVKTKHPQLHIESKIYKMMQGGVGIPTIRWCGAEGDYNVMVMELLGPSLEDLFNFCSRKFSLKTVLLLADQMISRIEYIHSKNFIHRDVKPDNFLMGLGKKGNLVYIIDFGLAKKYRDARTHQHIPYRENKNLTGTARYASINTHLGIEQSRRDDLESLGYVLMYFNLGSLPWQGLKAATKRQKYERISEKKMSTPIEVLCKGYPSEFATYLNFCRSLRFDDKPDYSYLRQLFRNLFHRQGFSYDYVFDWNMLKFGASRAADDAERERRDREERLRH
Method: as §4, §5, §6, §7, §8, §9

EGF-R = target: T5, EGF-R (Homo sapiens, UniProt P00533); assay: Biotinylated Peptide Substrate Assay, EGF-R; conditions: read-out: EGF-R Kinase Assay (IC50 uM)
T5 construct: is purified from human A431 cell membranes; purchased Sigma, St. Louis, Mo; E3641; host or cells: human A431 cell membranes (endogenous receptor)
Method: as §4, §5, §6, §7, §8, §9

Calmodulin Kinase 2 = target: T6, Calmodulin Kinase 2 (Rattus norvegicus, UniProt P11275); assay: Biotinylated Peptide Substrate Assay, Calmodulin Kinase 2
T6 construct: purchased New England Biolabs, Beverly, Mass; 6060; host or cells: insect cells
Method: as §4, §5, §6, §7, §8, §9

Map kinase ERK-2 = target: T7, Map kinase ERK-2 (Rattus norvegicus, UniProt P63086); assay: Biotinylated Peptide Substrate Assay, Map kinase ERK-2
T7 construct: polyhistidine (N); purchased BIOMOL, Plymouth Meeting, Pa; SE-137; host or cells: E. coli
Method: as §4, §5, §6, §7, §8, §9

T3 sequence (O08775 786-1343): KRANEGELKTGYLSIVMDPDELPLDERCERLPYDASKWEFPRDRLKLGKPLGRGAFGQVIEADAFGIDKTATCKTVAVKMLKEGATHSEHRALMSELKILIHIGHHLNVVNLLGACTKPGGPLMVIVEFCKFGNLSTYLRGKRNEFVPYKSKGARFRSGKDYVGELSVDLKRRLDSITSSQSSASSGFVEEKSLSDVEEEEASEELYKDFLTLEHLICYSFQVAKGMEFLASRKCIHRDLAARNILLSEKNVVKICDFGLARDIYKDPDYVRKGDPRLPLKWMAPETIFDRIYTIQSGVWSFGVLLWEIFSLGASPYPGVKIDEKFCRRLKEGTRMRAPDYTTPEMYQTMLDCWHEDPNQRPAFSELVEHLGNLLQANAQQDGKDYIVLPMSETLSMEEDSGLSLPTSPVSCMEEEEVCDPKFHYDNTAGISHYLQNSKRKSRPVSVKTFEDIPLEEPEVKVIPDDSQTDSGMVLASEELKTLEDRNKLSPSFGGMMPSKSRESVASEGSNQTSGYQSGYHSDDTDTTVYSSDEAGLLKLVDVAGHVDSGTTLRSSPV
T1 sequence (P05771 whole entry): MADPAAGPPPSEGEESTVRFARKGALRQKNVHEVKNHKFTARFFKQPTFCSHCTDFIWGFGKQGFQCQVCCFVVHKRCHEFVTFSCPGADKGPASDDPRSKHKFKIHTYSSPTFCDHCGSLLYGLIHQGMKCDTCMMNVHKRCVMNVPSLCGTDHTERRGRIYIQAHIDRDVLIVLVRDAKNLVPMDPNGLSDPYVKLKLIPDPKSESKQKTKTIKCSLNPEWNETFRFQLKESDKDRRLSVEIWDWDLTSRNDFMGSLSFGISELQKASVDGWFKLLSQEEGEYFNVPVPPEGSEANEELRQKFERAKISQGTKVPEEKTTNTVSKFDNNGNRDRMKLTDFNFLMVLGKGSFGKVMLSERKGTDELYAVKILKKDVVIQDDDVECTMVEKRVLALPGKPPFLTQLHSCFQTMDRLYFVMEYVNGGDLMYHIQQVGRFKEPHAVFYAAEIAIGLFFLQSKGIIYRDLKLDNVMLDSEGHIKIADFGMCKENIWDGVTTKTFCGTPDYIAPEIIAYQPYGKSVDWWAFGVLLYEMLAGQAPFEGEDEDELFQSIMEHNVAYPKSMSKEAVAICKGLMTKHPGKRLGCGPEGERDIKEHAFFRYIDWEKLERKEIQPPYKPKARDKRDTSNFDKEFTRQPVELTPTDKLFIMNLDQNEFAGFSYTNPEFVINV
T7 sequence (P63086 whole entry): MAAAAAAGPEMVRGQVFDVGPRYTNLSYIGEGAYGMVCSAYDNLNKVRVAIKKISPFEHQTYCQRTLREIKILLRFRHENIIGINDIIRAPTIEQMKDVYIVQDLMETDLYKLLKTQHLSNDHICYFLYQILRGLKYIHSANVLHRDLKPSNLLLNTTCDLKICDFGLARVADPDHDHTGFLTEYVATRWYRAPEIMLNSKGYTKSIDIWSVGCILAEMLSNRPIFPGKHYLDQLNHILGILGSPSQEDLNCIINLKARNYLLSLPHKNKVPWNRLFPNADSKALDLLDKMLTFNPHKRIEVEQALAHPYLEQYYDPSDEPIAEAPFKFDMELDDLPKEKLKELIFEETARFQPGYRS
T5 sequence (P00533 25-1210): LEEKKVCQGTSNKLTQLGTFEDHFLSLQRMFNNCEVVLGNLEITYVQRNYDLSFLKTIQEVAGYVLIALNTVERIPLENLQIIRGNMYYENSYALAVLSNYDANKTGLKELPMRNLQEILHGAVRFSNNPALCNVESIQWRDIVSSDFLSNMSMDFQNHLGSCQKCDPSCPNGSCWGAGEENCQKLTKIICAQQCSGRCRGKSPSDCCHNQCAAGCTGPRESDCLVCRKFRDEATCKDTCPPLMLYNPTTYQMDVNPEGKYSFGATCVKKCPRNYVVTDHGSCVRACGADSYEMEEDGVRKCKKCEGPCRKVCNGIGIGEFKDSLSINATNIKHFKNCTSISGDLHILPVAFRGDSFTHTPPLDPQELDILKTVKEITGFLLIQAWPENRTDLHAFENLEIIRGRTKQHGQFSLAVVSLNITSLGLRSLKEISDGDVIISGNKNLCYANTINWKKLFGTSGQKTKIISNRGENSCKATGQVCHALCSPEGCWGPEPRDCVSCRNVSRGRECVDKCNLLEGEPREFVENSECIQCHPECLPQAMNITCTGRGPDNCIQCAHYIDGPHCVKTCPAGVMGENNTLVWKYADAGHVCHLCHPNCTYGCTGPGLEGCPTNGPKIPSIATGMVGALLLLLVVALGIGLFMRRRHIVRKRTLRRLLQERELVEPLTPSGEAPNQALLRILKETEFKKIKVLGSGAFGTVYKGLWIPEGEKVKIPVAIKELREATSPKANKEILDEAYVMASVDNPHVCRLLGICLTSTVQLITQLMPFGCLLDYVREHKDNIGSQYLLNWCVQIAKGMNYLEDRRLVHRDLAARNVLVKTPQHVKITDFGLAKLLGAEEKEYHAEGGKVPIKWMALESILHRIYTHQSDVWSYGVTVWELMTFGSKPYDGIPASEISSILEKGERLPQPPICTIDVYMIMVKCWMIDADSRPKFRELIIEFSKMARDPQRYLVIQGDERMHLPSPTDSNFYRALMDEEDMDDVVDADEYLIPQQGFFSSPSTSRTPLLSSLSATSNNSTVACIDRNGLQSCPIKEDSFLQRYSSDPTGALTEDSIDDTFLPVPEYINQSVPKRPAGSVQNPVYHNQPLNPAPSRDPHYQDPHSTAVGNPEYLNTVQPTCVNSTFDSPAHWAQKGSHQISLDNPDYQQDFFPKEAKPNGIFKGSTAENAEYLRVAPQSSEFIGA

IC50 (PKC-βI) [µM]	IC50 (PKC-γ) [µM]	IC50 (VEGF-R) [µM]	IC50 (Casein Kinase 1) [µM]	IC50 (EGF-R) [µM]	IC50 (Calmodulin Kinase 2) [µM]	IC50 (Map kinase ERK-2) [µM]	Compound
1.06	2.85	0.889	> 10	> 10	> 10	> 10	O=C1NC(=O)C2=C1c1cn(c3ccccc13)CCOCCOCCOCCn1cc2c2cccnc21 [Cpd 11]
18.5	38.7	> 10	> 10	> 10	> 10	> 10	O=C1NC(=O)C2=C1c1cn(c3ncccc13)CCOCCOCCOCCn1cc2c2cccnc21 [Cpd 1]
> 100	> 100	> 10	> 10	> 10	> 10	> 10	O=C1NC(=O)C2=C1c1cn(c3ncccc13)CCOCCOCCOCCOCCn1cc2c2cccnc21 [Cpd 2]
5.15	7.8	1.2	> 10	> 10	> 10	> 10	O=C1NC(=O)C2=C1c1cn(c3ccccc13)CCOCCOCCn1cc2c2cccnc21 [Cpd 10]
